Measured values taken from patent US4548925A, “Antibiotic M43A, pharmaceutical composition and method of use” (Eli Lilly and Company, priority 1984, dated 1985).
Converted amounts (≈) assume the structure as drawn.

Assays:
[1] = system: Staphylococcus aureus NRRL B313; assay: In vitro MIC, standard agar-dilution assay; assay type: cell-based; conditions: M43A phosphate salt, vancomycin free base
[2] = system: Staphylococcus aureus V41; assay: In vitro MIC, standard agar-dilution assay; assay type: cell-based; conditions: M43A phosphate salt, vancomycin free base
[3] = system: Staphylococcus aureus X400; assay: In vitro MIC, standard agar-dilution assay; assay type: cell-based; conditions: M43A phosphate salt, vancomycin free base
[4] = system: Streptococcus pyogenes C203; assay: In vitro MIC, standard agar-dilution assay; assay type: cell-based; conditions: M43A phosphate salt, vancomycin free base
[5] = system: Haemophilus influenzae C.L.; assay: In vitro MIC, standard agar-dilution assay; assay type: cell-based; conditions: M43A phosphate salt, vancomycin free base
[6] = system: Haemophilus influenzae 76; assay: In vitro MIC, standard agar-dilution assay; assay type: cell-based; conditions: M43A phosphate salt, vancomycin free base
[7] = system: Escherichia coli N10; assay: In vitro MIC, standard agar-dilution assay; assay type: cell-based; conditions: M43A phosphate salt, vancomycin free base
[8] = system: Escherichia coli EC14; assay: In vitro MIC, standard agar-dilution assay; assay type: cell-based; conditions: M43A phosphate salt, vancomycin free base
[9] = system: Escherichia coli TEM; assay: In vitro MIC, standard agar-dilution assay; assay type: cell-based; conditions: M43A phosphate salt, vancomycin free base
[10] = system: Klebsiella pneumoniae X26; assay: In vitro MIC, standard agar-dilution assay; assay type: cell-based; conditions: M43A phosphate salt, vancomycin free base
[11] = system: Klebsiella pneumoniae X68; assay: In vitro MIC, standard agar-dilution assay; assay type: cell-based; conditions: M43A phosphate salt, vancomycin free base
[12] = system: Klebsiella pneumoniae KAE; assay: In vitro MIC, standard agar-dilution assay; assay type: cell-based; conditions: M43A phosphate salt, vancomycin free base
[13] = system: Bacteroides corrodens 1874; assay: Susceptibility of anaerobic isolates, agar-dilution MIC; assay type: cell-based; conditions: read after 24 hrs incubation
Method: (§1) . | ^a MIC's were determined by the agardilution method; endpoints were
(§2) read after 24hrs. incubation.

[14] = system: Bacteroides fragilis 111; assay: as above; assay type: cell-based; conditions: read after 24 hrs incubation
Method: as §1, §2

[15] = system: Bacteroides fragilis 1877; assay: as above; assay type: cell-based; conditions: read after 24 hrs incubation
Method: as §1, §2

[16] = system: Bacteroides fragilis 1936B; assay: as above; assay type: cell-based; conditions: read after 24 hrs incubation
Method: as §1, §2

[17] = system: Bacteroides melaninogenicus 1856/28; assay: as above; assay type: cell-based; conditions: read after 24 hrs incubation
Method: as §1, §2

[18] = system: Bacteroides melaninogenicus 2736; assay: as above; assay type: cell-based; conditions: read after 24 hrs incubation
Method: as §1, §2

[19] = system: Bacteroides thetaiotaomicron 1438; assay: as above; assay type: cell-based; conditions: read after 24 hrs incubation
Method: as §1, §2

[20] = system: Bacteroides vulgatis 1211; assay: as above; assay type: cell-based; conditions: read after 24 hrs incubation
Method: as §1, §2

[21] = system: Clostridium difficile 2994; assay: as above; assay type: cell-based; conditions: read after 24 hrs incubation
Method: as §1, §2

[22] = system: Clostridium septicum 1128; assay: as above; assay type: cell-based; conditions: read after 24 hrs incubation
Method: as §1, §2

[23] = system: Eubacterium aerofaciens 1235; assay: as above; assay type: cell-based; conditions: read after 24 hrs incubation
Method: as §1, §2

[24] = system: Fusobacterium necrophorum 6054A; assay: as above; assay type: cell-based; conditions: read after 24 hrs incubation
Method: as §1, §2

[25] = system: Fusobacterium symbiosum 1470; assay: as above; assay type: cell-based; conditions: read after 24 hrs incubation
Method: as §1, §2

[26] = system: Peptococcus asaccharolyticus 1302; assay: as above; assay type: cell-based; conditions: read after 24 hrs incubation
Method: as §1, §2

[27] = system: Peptococcus prevoti 1281; assay: as above; assay type: cell-based; conditions: read after 24 hrs incubation
Method: as §1, §2

[28] = system: Peptostreptococcus anaerobius 1428; assay: as above; assay type: cell-based; conditions: read after 24 hrs incubation
Method: as §1, §2

[29] = system: Peptostreptococcus intermedius 1264; assay: as above; assay type: cell-based; conditions: read after 24 hrs incubation
Method: as §1, §2

[30] = system: Propionibacterium acnes 79; assay: as above; assay type: cell-based; conditions: read after 24 hrs incubation
Method: as §1, §2

[31] = system: Clostridium perfringens 81; assay type: cell-based; conditions: agar dilution, read after 24 hrs incubation
[32] = system: Staphylococcus aureus; assay: Experimental bacterial infection in mice, ED50; assay type: in vivo; conditions: subcutaneous, two doses, dose protecting 50% of animals
[33] = system: Streptococcus pyogenes; assay: Experimental bacterial infection in mice, ED50; assay type: in vivo; conditions: subcutaneous, two doses, dose protecting 50% of animals
[34] = system: Streptococcus pneumoniae; assay: Experimental bacterial infection in mice, ED50; assay type: in vivo; conditions: subcutaneous, two doses, dose protecting 50% of animals
[35] = system: Streptococcus faecium ATCC 9790; conditions: agar dilution, M43A phosphate salt, vancomycin free base
[36] = system: Streptococcus sp. group D 9960; conditions: agar dilution, M43A phosphate salt, vancomycin free base

CN[C@H](CC(C)C)C(=O)N[C@H]1C(=O)N[C@@H](CC(N)=O)C(=O)N[C@H]2C(=O)N[C@H]3C(=O)N[C@H](C(=O)N[C@H](C(=O)O)c4cc(O)cc(O)c4-c4cc3ccc4O)[C@H](O)c3ccc(c(Cl)c3)Oc3cc2cc(c3O[C@@H]2O[C@H](CO)[C@@H](O)[C@H](O)[C@H]2O[C@H]2C[C@](C)(N)[C@H](O)[C@H](C)O2)Oc2ccc(cc2Cl)[C@H]1O [Vancomycin]
MIC [1]: 1 µg/mL
MIC [2]: 1 µg/mL
MIC [3]: 1 µg/mL
MIC [4]: 1 µg/mL
MIC [5]: 128 µg/mL
MIC [6]: 32 µg/mL
MIC [7]: > 128 µg/mL
MIC [8]: > 128 µg/mL
MIC [9]: > 128 µg/mL
MIC [10]: > 128 µg/mL
MIC [11]: > 128 µg/mL
MIC [12]: > 128 µg/mL
MIC [13]: 32 µg/mL (≈ 22.1 µM)
MIC [14]: 64 µg/mL (≈ 44.2 µM)
MIC [15]: 32 µg/mL (≈ 22.1 µM)
MIC [16]: 32 µg/mL (≈ 22.1 µM)
MIC [17]: > 128 µg/mL
MIC [18]: 8 µg/mL (≈ 5.52 µM)
MIC [19]: 16 µg/mL (≈ 11 µM)
MIC [20]: 16 µg/mL (≈ 11 µM)
MIC [21]: 2 µg/mL (≈ 1.38 µM)
MIC [22]: 4 µg/mL (≈ 2.76 µM)
MIC [23]: 16 µg/mL (≈ 11 µM)
MIC [24]: 2 µg/mL (≈ 1.38 µM)
MIC [25]: 2 µg/mL (≈ 1.38 µM)
MIC [26]: 2 µg/mL (≈ 1.38 µM)
MIC [27]: 2 µg/mL (≈ 1.38 µM)
MIC [28]: 2 µg/mL (≈ 1.38 µM)
MIC [29]: 4 µg/mL (≈ 2.76 µM)
MIC [30]: 2 µg/mL (≈ 1.38 µM)
MIC [31]: 1 µg/mL (≈ 0.69 µM)
E50 [32]: 1.62 mg/kg/2
E50 [33]: 1.2 mg/kg/2
E50 [34]: 1.47 mg/kg/2
MIC [35]: 1 µg/mL
MIC [36]: 4 µg/mL
